Entries after “also recorded” stand apart in the source; their conditions may differ.
Tests used:
[1] = test system: MC38 colon carcinoma tumors; assay: MC38 colon carcinoma syngeneic mouse tumor model, tumor growth; format: in vivo, C57 BL/6 mice; conditions: established MC38 tumors; ganetespib 125 mg/kg days 8 and 15; αPD-L1 200 μg days 8, 12, 15; FIG. 1A
Method: Such findings support the premise that targeting HSP90 may represent a complementary and therapeutically advantageous approach together with immune checkpoint blockade for augmenting antitumor immune responses.
The HSP90 inhibitor ganetespib potentiates the antitumor efficacy of PD-L1 antibody treatment in syngeneic mouse tumor models. In FIG. 1 (a), C57 BL/6 mice bearing established MC38 colon carcinoma tumors (n=7/group) were treated with 200 μg IgG1 control or anti-PD-L1 antibody (αPD-L1; Sorrento Therapeutics, Inc., San Diego), either alone or in combination with 125 mg/kg ganetespib. Ganetespib was dosed on a weekly schedule (days 8 and 15), αPD-L1 was administered on days 8, 12, and 15. […] In FIG. 1 (b), C57 BL/6 mice bearing established B16 melanoma tumors (n=3/group) were dosed using a similar regimen as in (a).

MC38 tumors = assay: Gene expression array (NanoString) of MC38 tumors after a ganetespib dose; format: in vivo, mice
Method: Mice with MC38 tumors received a dose of ganetespib. Tumors (3 per time point) were removed from the animals at 4, 24, 48 and 120 hr post dose. RNA was prepared and analyzed for gene expression using NanoString. Expression levels of genes were made by comparing drug treated tumors with vehicle-treated tumors.

HCC827 cells = assay: MHC Class I surface expression on HCC827 cells, flow cytometry; format: cell-based; conditions: overnight incubation, FIG. 7A
Method: HCC827 cells were incubated with DMSO, Interferon gamma (IFNγ) or ganetespib and stained with anti MHC Class 1 antibodies and examined by flow cytometry to determine the number of molecules per cell surface.

MC38 cells = assay: MHC Class I (H2-K) surface expression on MC38 cells, flow cytometry; format: cell-based, mouse; conditions: overnight, 100 nM ganetespib (sublethal), FIG. 7B
Method: MC38 cells were incubated overnight with media+0.01% DMSO (dashed red line, light blue line), or media with 100 nM ganetespib (dotted red line, dark blue line). Cells were stained with an isotype control (red lines), or antibody to mouse H2-K (blue lines).

MC38 tumor cells = assay: Chemokine production by MC38 tumor cells in vitro; format: cell-based, mouse; conditions: overnight, sublethal ganetespib with 300 U/ml TNFα, FIG. 8
Method: (§1) MC38 or CT26 tumor cells were incubated with the indicated concentrations of ganetespib as shown in FIG. 8 in combination with 300 U/ml TNFα overnight and supernatants were collected and assayed for chemokines.

CT26 tumor cells = assay: Chemokine production by CT26 tumor cells in vitro; format: cell-based; conditions: overnight, sublethal ganetespib with 300 U/ml TNFα, FIG. 8
Method: as §1

[2] = within 48-120 hr after in vivo treatment, versus vehicle-treated tumors

CC(C)c1cc(-c2nnc(O)n2-c2ccc3c(ccn3C)c2)c(O)cc1O [ganetespib, 3-(2,4-DIHYDROXY-5- ISOPROPYL-PHENYL)-4-(1- METHYL-INDOL-5-YL)-5- HYDROXY-[1,2,4] TRIAZOLE (GANETESPIB)]
tumor growth suppression / antitumor efficacy [1]: comparable degree of tumor growth suppression to that seen following selective anti-PD-L1 antibody treatment | influx of immune cells into tumors (gene expression) (MC38 tumors; after a single ganetespib administration, FIG. 6): influx of T cells, B cells and NK cells into tumors | chemokines in tumor (gene expression) (MC38 tumors; after in vivo treatment, versus vehicle-treated tumors): Increases in a large number of chemokines | NK cells and CD8 cells in tumor (gene expression) (MC38 tumors; [2]): increased numbers of NK cells and CD8 cells | Treg cells in tumor (gene expression) (MC38 tumors; [2]): decreased Treg cells | number of HLA-ABC molecules/cell (HCC827 cells): doubled | major histocompatibility antigen (MHC Class I, H2-K) expression (MC38 cells): upregulates major histocompatibility antigens, especially MHC Class I | chemokine production (CCL2, CCL5, CXCL10) (MC38 tumor cells): induces chemokine production; also recorded: provokes production of chemokines by the tumor cells (CCL2, CCL5, CXCL10) | chemokine production (CCL2, CCL5, CXCL10) (CT26 tumor cells): induces chemokine production; also recorded: provokes production of chemokines by the tumor cells (CCL2, CCL5, CXCL10)
